Activity and LD50 data for five compounds are collected here from ChEMBL document CHEMBL3272342, “Nonsteroidal antiinflammatory agents. 2. Synthesis and biological activity of 2-chloroindolecarboxylic acids” (J Med Chem, 1977).

Series [1] concerns Rattus norvegicus. The series can be described thus: Antiinflammatory activity in Wistar rat assessed as inhibition of carrageenan-induced edema measured as increase in foot volume at 40 mg/kg, po administered 1 hr prior challenge measured 7 hrs after carrageenin injection (reference value: 178.8 %). Format: functional. Details: scale not given: the % may be the effect or the level left. Background: The carrageenan paw model is a standard test of acute inflammation.

Series [2] concerns Rattus norvegicus. The series can be described thus: Antiinflammatory activity in Wistar rat assessed as inhibition of carrageenan-induced edema measured as increase in foot volume at 20 mg/kg, po administered 1 hr prior challenge measured 3 hrs after carrageenin injection (reference value: 187.6 %). Format: functional. Also noted: scale not given: the % may be the effect or the level left.

Series [3] relates to Rattus norvegicus. The series can be described thus: Antiinflammatory activity in Wistar rat assessed as inhibition of carrageenan-induced edema measured as increase in foot volume at 5 mg/kg, po administered 1 hr prior challenge measured 7 hrs after carrageenin injection (reference value: 178.8 %). Format: functional. Details: scale not given: the % may be the effect or the level left.

The nature of series [4]: Toxicity in ip dosed Swiss mouse. Particulars: in vivo. Format: organism-based.
The test system of series [5] is Rattus norvegicus. Briefly: Antiinflammatory activity in Wistar rat assessed as inhibition of carrageenan-induced edema measured as increase in foot volume at 5 mg/kg, po administered 1 hr prior challenge measured 3 hrs after carrageenin injection (reference value: 187.6 %). Format: functional. Also noted: scale not given: the % may be the effect or the level left.

For series [6], the system named is Rattus norvegicus. Briefly: Antiinflammatory activity in Wistar rat assessed as inhibition of carrageenan-induced edema measured as increase in foot volume at 40 mg/kg, po administered 1 hr prior challenge measured 3 hrs after carrageenin injection (reference value: 187.6 %). Format: functional. Details: scale not given: the % may be the effect or the level left.

Series [7] relates to Rattus norvegicus. Briefly: Antiinflammatory activity in Wistar rat assessed as inhibition of carrageenan-induced edema measured as increase in foot volume at 20 mg/kg, po administered 1 hr prior challenge measured 7 hrs after carrageenin injection (reference value: 178.8 %). Format: functional. Also noted: scale not given: the % may be the effect or the level left.

For orientation: LD50 means the dose expected to kill half of the subjects tested.

As to `Cn1c(Cl)c(C(=O)O)c2ccccc21`, the Activity in series [1] came to 150.7%; in series [2], 146.5%; in series [3], 133.3%; in series [5], 145.1%; in series [6], 148.3%; in series [7], 133.8%. Further, in series [4], the LD50 is over 500 mg/kg.
As for `O=C(O)c1c(Cl)n(-c2ccccc2)c2ccccc12`, the Activity in series [1] amounted to 201.1%; in series [2], 149.4%; in series [3] it was 151.4%; in series [5] it was 159.8%; in series [6], 173.8%; in series [7], 130.1%. In series [4], this compound had an LD50 of over 500 mg/kg.
As for `O=C(O)Cc1c(Cl)n(-c2ccccc2)c2ccccc12`, the Activity in series [1] is on record as 186.4%; in series [2], 165.9%; in series [3] it was 200.9%; in series [5] it was 170.3%; in series [6] it was 138%; in series [7] it was 191.8%. For the same compound, the LD50 in series [4] was over 500 mg/kg.
`O=C(O)c1c(Cl)[nH]c2ccccc12`: the Activity in series [1] worked out at 132.1%; in series [2], 161.7%; in series [3] it was 143.4%; in series [5], 153.1%; in series [6] it was 156.4%; in series [7] it was 153.5%. In series [4], the LD50 is over 500 mg/kg.
On to `COc1ccc2c(c1)c(CC(=O)O)c(C)n2C(=O)c1ccc(Cl)cc1` [INDOMETHACIN], for which the Activity in series [3] stood at 106.8%; in series [5], 98.5%.
